The results in this text go back to ChEMBL document CHEMBL1201862, “PubChem BioAssay data set” (2004).

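Step 1: Grow cells in 96-well plates. Step 2: Expose to compound for 48 hours at 5 concentrations. Step 3: Interpolate endpoints linearly; if unreached, use highest concentration. GI50: concentration for 50% inhibition of growth.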 Calls of active or inactive are those of the source. Cut-off read from the data, not from the text of the source: active = GI50 up to about 1.1 µM and inactive = higher. Bounds are passed on as bounds.

Assay in all cases: NCI tumour cell line growth inhibition, 48 h
Experiment [1] concerns 786-0.
Experiment [2] concerns A498.
Experiment [3] concerns CAKI-1.
The test system of experiment [4] is CCRF-CEM.
In experiment [5] the test system is COLO 205.
Experiment [6] relates to EKVX.
Experiment [7] deals with HCC 2998.
Experiment [8] relates to HCT-116.
Experiment [9] deals with KM12.
The subject of experiment [10] is MCF7.
Experiment [11] relates to MDA-MB-231.
Experiment [12] concerns NCI-H522.
The test system of experiment [13] is NCI/ADR-RES.
Experiment [14] has as its system SF-295.
Experiment [15] relates to SN12C.
Experiment [16] concerns SNB-75.
Experiment [17] deals with SR.
The test system of experiment [18] is T47D.
Experiment [19] deals with UACC-257.
In experiment [20] the test system is UO-31.

Consider `CN(C)Cc1cc(C(C)(C)C)cc(CN(C)C)c1O`, for which the GI50 in experiment [1] is 60.1 µM (inactive); in [2] it was > 100 µM (inactive); in experiment [3], > 100 µM (inactive); in experiment [4], 21.4 µM (inactive); in experiment [5] it was 35.8 µM (inactive); in [6], 40.6 µM (inactive). Further, the GI50 in experiment [7] was 17.1 µM (inactive); in experiment [8], 35.6 µM (inactive); in experiment [9] it was 70.8 µM (inactive); in experiment [10] it was 96.2 µM (inactive); in experiment [11] it was 92.5 µM (inactive); in [12], 43.5 µM (inactive). Also, the GI50 is 34.2 µM (inactive) in [13]; 44.6 µM (inactive) in [14]; 73.3 µM (inactive) in experiment [15]; > 100 µM (inactive) in [16]; 54.8 µM (inactive) in [17]; > 100 µM (inactive) in [18]. Also, the GI50 is > 100 µM (inactive) in experiment [19] and 21.3 µM (inactive) in experiment [20].

Regarding `CC(=O)C(=[N+]=[N-])C(=O)NCC#N`, the GI50 in experiment [1], in experiment [2], in experiment [3], in experiment [4], in experiment [5] and in [6] was > 10 µM (inactive) throughout. Also, the GI50 in experiment [7] is > 10 µM (inactive); in [8], > 10 µM (inactive); in experiment [9], 6.93 µM (inactive); in experiment [10], > 10 µM (inactive); in experiment [11], > 10 µM (inactive); in [12], > 10 µM (inactive). Besides, the GI50 in experiment [13] was > 10 µM (inactive); in experiment [14], > 10 µM (inactive); in [15], > 10 µM (inactive); in experiment [16], 0.441 µM (active); in experiment [17] it was > 10 µM (inactive); in [18] it was > 10 µM (inactive). Further, the GI50 in [19] and in experiment [20] was > 10 µM (inactive) in each case.

Take `O=c1c2nn3c(=O)n(-c4ccccc4)c(=O)c3nn2c(=O)n1-c1ccccc1`: the GI50 in [1] is > 100 µM (inactive); in experiment [2], 50.4 µM (inactive); in [3] it was > 100 µM (inactive); in experiment [4], 56 µM (inactive); in [5], > 100 µM (inactive); in [6], > 100 µM (inactive). Besides, the GI50 in experiment [7], in experiment [8], in experiment [9], in experiment [10], in experiment [11] and in experiment [12] was > 100 µM (inactive) each time. The GI50 in experiment [13] was > 100 µM (inactive); in [14], 54.1 µM (inactive); in [15], > 100 µM (inactive); in experiment [16], 81.3 µM (inactive); in experiment [17] it was > 100 µM (inactive); in [18], > 100 µM (inactive). The GI50 in experiment [19] and in [20] was > 100 µM (inactive) throughout.

Turning to `C=C1C(=O)O[C@H]2C1C[C@@H](O)/C(C)=C/CC[C@@]1(C)O[C@H]21` (stereo partly drawn), the GI50 in experiment [1] is 10.5 µM (inactive); in [2], 25 µM (inactive); in experiment [3], 3.03 µM (inactive); in [4], 3.17 µM (inactive); in experiment [5], 4.93 µM (inactive); in [6], 12.2 µM (inactive). For the same compound, the GI50 was 33.1 µM (inactive) in experiment [7]; 8.93 µM (inactive) in experiment [8]; > 100 µM (inactive) in experiment [9]; 8.57 µM (inactive) in experiment [10]; 18.6 µM (inactive) in experiment [11]; 2.97 µM (inactive) in [12]. For the same compound, the GI50 in experiment [13] was 30.5 µM (inactive); in [14] it was > 55.1 µM (inactive); in [15], 29.2 µM (inactive); in experiment [16], 16.4 µM (inactive); in experiment [17], 7.64 µM (inactive); in experiment [18], 9.12 µM (inactive). Besides, the values for the GI50 in experiment [19] and in [20] were 13.1 µM (inactive) and 18.7 µM (inactive), respectively.

For `CC(=O)Oc1ccccc1-c1cc2ccccc2oc1=O`, the GI50 in experiment [1] is > 100 µM (inactive); in experiment [2], > 100 µM (inactive); in [4], > 100 µM (inactive); in [5], > 100 µM (inactive); in experiment [6] it was 63.5 µM (inactive); in experiment [7], > 100 µM (inactive). Moreover, the GI50 in [8] is > 100 µM (inactive); in experiment [9], > 100 µM (inactive); in experiment [10], > 100 µM (inactive); in [11], > 100 µM (inactive); in experiment [12], 61.1 µM (inactive); in experiment [13], 76.9 µM (inactive). Further, the GI50 in experiment [14] is 91.2 µM (inactive); in experiment [15] it was > 100 µM (inactive); in experiment [16], 32.8 µM (inactive); in [17] it was > 100 µM (inactive); in experiment [18], 97.7 µM (inactive); in [19] it was > 100 µM (inactive). For the same compound, the GI50 in experiment [20] was 46.8 µM (inactive).

For `CC(C)(C)OC(=O)N1C(C2=COc3ccccc3O2)=COc2ccccc21`, the GI50 in experiment [1] was 38.1 µM (inactive); in [2] it was 17.1 µM (inactive); in [3], 38 µM (inactive); in experiment [5], 19.4 µM (inactive); in [6], 16.8 µM (inactive); in experiment [7], 16.2 µM (inactive). Moreover, the GI50 in [8] was 23.9 µM (inactive); in experiment [9], 29.9 µM (inactive); in experiment [10], 24.2 µM (inactive); in [11] it was 23.1 µM (inactive); in [12] it was 16 µM (inactive); in experiment [13], 27.1 µM (inactive). Besides, the GI50 in [14] is 26.9 µM (inactive); in [15], 26.6 µM (inactive); in experiment [16], 35 µM (inactive); in experiment [17], 21.1 µM (inactive); in [18] it was 11.5 µM (inactive); in experiment [19], 23.9 µM (inactive). In experiment [20], the GI50 is 30 µM (inactive).

With `O=C(N/N=C\c1ccc([N+](=O)[O-])cc1)Nc1ccc2ccccc2c1`, the GI50 in experiment [1] was 17.2 µM (inactive); in experiment [2], 24.2 µM (inactive); in experiment [3], 37.5 µM (inactive); in [4] it was 35.3 µM (inactive); in experiment [5], 24.7 µM (inactive); in experiment [6], 44.6 µM (inactive). Also, the GI50 was 25.4 µM (inactive) in [7]; 24.3 µM (inactive) in experiment [8]; 23.3 µM (inactive) in experiment [9]; 32.5 µM (inactive) in experiment [10]; 26.1 µM (inactive) in experiment [11]; 24.6 µM (inactive) in experiment [12]. Moreover, the GI50 is 50.6 µM (inactive) in experiment [13]; 49.4 µM (inactive) in experiment [14]; 45.5 µM (inactive) in experiment [15]; 27.2 µM (inactive) in experiment [16]; 20.6 µM (inactive) in [17]; 56.1 µM (inactive) in [18]. Further, the values for the GI50 in experiment [19] and in experiment [20] were 44.3 µM (inactive) and 82.4 µM (inactive), respectively.

For `CC(C)c1[nH]nc(C(N)=O)c1/N=N/N(C)C`, the GI50 in experiment [1] is > 100 µM (inactive); in experiment [2], > 100 µM (inactive); in experiment [3], 16 µM (inactive); in experiment [4], 36.6 µM (inactive); in experiment [5], 67.9 µM (inactive); in [6], 47.9 µM (inactive). Further, the GI50 in experiment [7] is > 100 µM (inactive); in experiment [8], 98.4 µM (inactive); in experiment [9], 61.1 µM (inactive); in experiment [10], 28.4 µM (inactive); in experiment [11], > 100 µM (inactive); in [12], 24.4 µM (inactive). The GI50 is > 100 µM (inactive) in experiment [13]; 64.7 µM (inactive) in [14]; 75.3 µM (inactive) in experiment [15]; 44.8 µM (inactive) in experiment [16]; 17.1 µM (inactive) in [17]; 79.6 µM (inactive) in experiment [18]. Further, the results for the GI50 in experiment [19] and in [20] were > 100 µM (inactive) and 0.237 µM (active), respectively.

Regarding `CC(=O)c1ccc2c(c1)C(=O)c1sc(C(C)=O)cc1C2=O`, the GI50 in [1] was 1.68 µM (inactive); in experiment [2], 21.6 µM (inactive); in experiment [3], 1.75 µM (inactive); in [4], 0.403 µM (active); in experiment [5], 1.69 µM (inactive); in [6], 1.18 µM (inactive). Moreover, the GI50 in [7] was 3.17 µM (inactive); in [8], 0.488 µM (active); in experiment [9], 1.01 µM (active); in experiment [10] it was 1.37 µM (inactive); in experiment [11], 1.23 µM (inactive); in [12], 0.652 µM (active). Further, the GI50 in experiment [13] is 0.906 µM (active); in experiment [14] it was 1.01 µM (active); in experiment [15], 0.578 µM (active); in [16], 1.67 µM (inactive); in experiment [17] it was 0.419 µM (active); in experiment [18] it was 1.32 µM (inactive). For the same compound, the results for the GI50 in [19] and in experiment [20] were 0.859 µM (active) and 1.07 µM (active), respectively.

For `Cc1ccc2c(O)cc(-c3ccsc3)nc2n1`, the GI50 in experiment [1] is 4.58 µM (inactive); in experiment [2] it was 4.07 µM (inactive); in experiment [3], 6.95 µM (inactive); in experiment [4], 6.18 µM (inactive); in experiment [5] it was 3.21 µM (inactive); in [6] it was 16.9 µM (inactive). The GI50 in experiment [7] was 5.9 µM (inactive); in experiment [8], 3.62 µM (inactive); in experiment [9], 4.33 µM (inactive); in [10], 3.08 µM (inactive); in experiment [11], 11.5 µM (inactive); in experiment [12], 3.67 µM (inactive). Besides, the GI50 in experiment [13] was 2.29 µM (inactive); in experiment [14], 3.44 µM (inactive); in experiment [15], 5.83 µM (inactive); in experiment [16] it was 3.14 µM (inactive); in [17], 0.361 µM (active); in experiment [18], 5.01 µM (inactive). Moreover, the GI50 is 16.5 µM (inactive) in [19] and 2.32 µM (inactive) in [20].
